Source: ChEMBL document CHEMBL1201862, “PubChem BioAssay data set” (2004)
Active and inactive are the calls of the source.

Tests used:
[1] = target: T1, Carboxy-terminal domain RNA polymerase II polypeptide A small phosphatase 1 (Homo sapiens, UniProt Q9GZU7); test: inhibitors of CTDSP1, concentration-response testing, biochemical assay, absorbance-based, actives from ultra-high-throughput screening (AID 540297); assay type: functional
T1 sequence (Q9GZU7 whole entry): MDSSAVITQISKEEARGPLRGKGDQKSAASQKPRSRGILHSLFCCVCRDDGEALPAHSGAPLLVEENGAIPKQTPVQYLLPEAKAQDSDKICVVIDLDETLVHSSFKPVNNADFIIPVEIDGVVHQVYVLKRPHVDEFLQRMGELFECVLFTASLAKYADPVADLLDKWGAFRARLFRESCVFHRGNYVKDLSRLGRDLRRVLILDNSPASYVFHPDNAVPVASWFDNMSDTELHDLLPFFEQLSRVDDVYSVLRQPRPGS

[2] = target: T2, Dual specificity protein phosphatase 3 (Homo sapiens, UniProt P51452); test: VHR1 phosphatase inhibitors, biochemical (AID 1878)
T2 sequence (P51452 whole entry): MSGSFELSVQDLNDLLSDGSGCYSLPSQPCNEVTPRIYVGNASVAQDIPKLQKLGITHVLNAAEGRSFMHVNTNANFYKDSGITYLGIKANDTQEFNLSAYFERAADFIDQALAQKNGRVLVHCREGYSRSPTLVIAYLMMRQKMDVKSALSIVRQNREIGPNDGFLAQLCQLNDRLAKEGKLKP

[3] = target: T3, Zinc finger protein mex-5 (Caenorhabditis elegans, UniProt Q9XUB2); test: MEX-5/TCR-2 RNA interaction inhibitors, dose response, biochemical, C. elegans, fluorescence polarization (AID 1960)
T3 sequence (Q9XUB2 whole entry): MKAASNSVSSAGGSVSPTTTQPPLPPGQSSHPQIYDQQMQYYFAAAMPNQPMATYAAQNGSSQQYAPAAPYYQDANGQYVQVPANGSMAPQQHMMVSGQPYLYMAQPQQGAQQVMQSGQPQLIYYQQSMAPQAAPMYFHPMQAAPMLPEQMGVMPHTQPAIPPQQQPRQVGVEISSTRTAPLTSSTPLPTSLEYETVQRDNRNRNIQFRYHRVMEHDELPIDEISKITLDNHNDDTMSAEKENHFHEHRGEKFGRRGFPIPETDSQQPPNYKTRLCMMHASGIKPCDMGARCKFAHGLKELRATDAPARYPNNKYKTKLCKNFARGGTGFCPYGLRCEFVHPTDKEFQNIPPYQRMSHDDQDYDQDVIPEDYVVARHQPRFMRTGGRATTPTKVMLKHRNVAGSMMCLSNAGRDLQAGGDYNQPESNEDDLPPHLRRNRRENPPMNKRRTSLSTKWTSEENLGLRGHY

[4] = target: T4, RNA-binding protein pos-1 (Caenorhabditis elegans, UniProt G5EF15); test: inhibitors of POS-1/mex-3 RNA binding, dose response, biochemical, fluorescence polarization (AID 1964);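 further: purified POS-1 fused to maltose binding protein made in E. coli; potency of compounds blocking POS-1 binding to fluorescent RNA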
T4 sequence (G5EF15 whole entry): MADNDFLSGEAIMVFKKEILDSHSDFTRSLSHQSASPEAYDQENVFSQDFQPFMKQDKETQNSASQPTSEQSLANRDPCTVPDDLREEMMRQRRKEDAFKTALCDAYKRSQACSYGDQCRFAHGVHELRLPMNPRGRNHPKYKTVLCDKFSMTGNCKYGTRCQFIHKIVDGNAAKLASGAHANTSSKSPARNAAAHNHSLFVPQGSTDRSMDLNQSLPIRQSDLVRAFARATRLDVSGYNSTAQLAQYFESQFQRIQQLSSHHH

[5] = target: T5, Dual specificity protein phosphatase 6 (Rattus norvegicus, UniProt Q64346); test: MKP-3 phosphatase inhibitors, primary screen, biochemical, rat enzyme, in vitro (AID 425)
T5 sequence (Q64346 whole entry): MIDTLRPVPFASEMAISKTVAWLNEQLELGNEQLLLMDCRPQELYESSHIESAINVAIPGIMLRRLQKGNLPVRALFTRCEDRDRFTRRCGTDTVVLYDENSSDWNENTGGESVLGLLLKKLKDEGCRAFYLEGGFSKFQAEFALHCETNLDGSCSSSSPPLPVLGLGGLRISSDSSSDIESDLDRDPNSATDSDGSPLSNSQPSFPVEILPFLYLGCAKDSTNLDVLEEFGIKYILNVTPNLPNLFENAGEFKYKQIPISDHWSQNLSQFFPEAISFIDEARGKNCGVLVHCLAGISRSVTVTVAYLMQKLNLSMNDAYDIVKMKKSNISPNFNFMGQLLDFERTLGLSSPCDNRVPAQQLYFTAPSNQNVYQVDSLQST

[6] = target: T2, Dual specificity protein phosphatase 3; test: VHR1 phosphatase inhibitors, primary screen, biochemical, absorbance, uHTS (AID 1654)
CAAX prenyl protease 2 = target: T6, CAAX prenyl protease 2 (Saccharomyces cerevisiae S288c, UniProt Q03530); assay type: biochemical
T6 sequence (Q03530 whole entry): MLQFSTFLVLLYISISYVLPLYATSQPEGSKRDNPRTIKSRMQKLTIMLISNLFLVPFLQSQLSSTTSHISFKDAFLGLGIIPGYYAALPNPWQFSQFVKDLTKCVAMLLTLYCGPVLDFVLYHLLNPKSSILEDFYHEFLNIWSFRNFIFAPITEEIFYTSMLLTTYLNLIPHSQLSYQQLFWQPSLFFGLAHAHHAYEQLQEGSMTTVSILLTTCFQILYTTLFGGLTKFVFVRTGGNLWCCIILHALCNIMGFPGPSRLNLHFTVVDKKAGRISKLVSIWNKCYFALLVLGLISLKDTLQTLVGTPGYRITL

[7] = mammalian cell cytotoxicity, dose response, cytotoxicity control, plate reader, cherry-pick samples (AID 504397); assay type: functional, cell-based
[8] = target: T7, Tyrosine-protein phosphatase non-receptor type 22 (Homo sapiens, UniProt Q9Y2R2); assay type: functional
T7 sequence (Q9Y2R2 whole entry): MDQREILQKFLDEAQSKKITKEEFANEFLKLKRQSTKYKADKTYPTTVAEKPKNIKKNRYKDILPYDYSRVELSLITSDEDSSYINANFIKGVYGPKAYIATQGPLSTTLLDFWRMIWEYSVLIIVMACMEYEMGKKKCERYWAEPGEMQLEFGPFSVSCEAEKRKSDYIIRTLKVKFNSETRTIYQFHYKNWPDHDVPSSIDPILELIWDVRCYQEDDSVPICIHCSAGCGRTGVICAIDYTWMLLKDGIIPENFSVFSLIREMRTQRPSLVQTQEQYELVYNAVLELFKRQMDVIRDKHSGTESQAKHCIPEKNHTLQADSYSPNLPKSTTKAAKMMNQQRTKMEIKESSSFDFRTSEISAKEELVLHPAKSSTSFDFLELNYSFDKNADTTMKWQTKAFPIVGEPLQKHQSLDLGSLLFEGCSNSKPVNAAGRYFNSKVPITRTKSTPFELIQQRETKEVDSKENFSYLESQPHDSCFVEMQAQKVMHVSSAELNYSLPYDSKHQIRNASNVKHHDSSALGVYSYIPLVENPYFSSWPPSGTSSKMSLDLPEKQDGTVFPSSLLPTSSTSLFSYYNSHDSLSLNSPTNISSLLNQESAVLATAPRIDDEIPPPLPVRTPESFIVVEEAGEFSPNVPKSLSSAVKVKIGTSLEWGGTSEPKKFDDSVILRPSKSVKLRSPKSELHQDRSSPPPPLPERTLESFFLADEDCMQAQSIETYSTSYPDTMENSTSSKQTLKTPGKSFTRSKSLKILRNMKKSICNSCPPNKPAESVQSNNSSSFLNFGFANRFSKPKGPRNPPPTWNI

[9] = target: T8, Tyrosine-protein phosphatase non-receptor type 7 (Homo sapiens, UniProt P35236); assay type: functional
T8 sequence (P35236 whole entry): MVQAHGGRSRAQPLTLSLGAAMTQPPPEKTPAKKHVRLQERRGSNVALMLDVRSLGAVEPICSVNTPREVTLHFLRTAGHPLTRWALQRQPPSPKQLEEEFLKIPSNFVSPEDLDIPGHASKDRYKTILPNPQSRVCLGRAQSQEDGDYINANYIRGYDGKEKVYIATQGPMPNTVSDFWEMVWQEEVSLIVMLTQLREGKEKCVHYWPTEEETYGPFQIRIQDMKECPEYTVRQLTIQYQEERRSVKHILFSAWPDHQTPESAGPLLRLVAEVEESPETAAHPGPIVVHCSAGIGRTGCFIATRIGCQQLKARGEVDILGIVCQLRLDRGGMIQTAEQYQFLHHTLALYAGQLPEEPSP

[10] = target: T7, Tyrosine-protein phosphatase non-receptor type 22; assay type: functional; remark: listed apart in the source
SUMO-activating enzyme = SUMO-activating enzyme (Homo sapiens, UniProt Q9UBT2); test: SUMOylation inhibitor hit validation, confirmation, SUMOylation inhibitor project, biochemical, AlphaScreen (AID 2018); assay type: functional
SUMO-activating enzyme, sequence (Q9UBE0 whole entry): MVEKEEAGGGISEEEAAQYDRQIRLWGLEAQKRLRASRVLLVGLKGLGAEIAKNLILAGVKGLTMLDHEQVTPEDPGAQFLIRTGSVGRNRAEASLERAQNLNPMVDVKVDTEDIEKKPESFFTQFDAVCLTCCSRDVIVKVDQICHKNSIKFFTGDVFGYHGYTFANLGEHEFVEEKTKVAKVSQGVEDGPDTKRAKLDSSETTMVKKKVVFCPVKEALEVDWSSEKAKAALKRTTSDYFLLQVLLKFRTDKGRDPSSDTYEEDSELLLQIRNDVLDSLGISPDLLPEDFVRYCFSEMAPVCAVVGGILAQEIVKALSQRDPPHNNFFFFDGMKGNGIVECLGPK
SUMO-activating enzyme, sequence (Q9UBT2 whole entry): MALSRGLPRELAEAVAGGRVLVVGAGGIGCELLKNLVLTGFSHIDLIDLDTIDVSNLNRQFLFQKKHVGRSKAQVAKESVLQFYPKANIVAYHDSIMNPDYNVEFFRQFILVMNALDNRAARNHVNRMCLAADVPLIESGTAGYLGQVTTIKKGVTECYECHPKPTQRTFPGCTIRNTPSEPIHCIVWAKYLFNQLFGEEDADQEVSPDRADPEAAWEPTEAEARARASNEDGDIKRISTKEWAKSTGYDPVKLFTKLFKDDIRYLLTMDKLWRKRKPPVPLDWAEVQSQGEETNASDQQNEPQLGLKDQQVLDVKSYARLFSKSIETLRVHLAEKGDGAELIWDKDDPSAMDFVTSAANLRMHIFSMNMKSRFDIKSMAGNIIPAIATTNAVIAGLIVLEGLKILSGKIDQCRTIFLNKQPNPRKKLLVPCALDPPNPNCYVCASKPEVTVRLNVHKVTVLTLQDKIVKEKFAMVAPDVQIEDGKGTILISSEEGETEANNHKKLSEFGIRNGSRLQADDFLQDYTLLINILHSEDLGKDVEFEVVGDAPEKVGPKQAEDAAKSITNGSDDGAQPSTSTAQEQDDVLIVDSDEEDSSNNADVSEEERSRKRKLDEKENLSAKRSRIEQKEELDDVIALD

[11] = target: T9, Corticotropin-releasing factor receptor 2/Corticotropin-releasing factor-binding protein (Homo sapiens, UniProt P24387+Q13324); test: activators of CRF receptor 2 with binding protein – uHTS hits, confirmation (AID 602473); assay type: functional; conditions: read-out: EC50_Mean
T9 sequence (Q13324 whole entry): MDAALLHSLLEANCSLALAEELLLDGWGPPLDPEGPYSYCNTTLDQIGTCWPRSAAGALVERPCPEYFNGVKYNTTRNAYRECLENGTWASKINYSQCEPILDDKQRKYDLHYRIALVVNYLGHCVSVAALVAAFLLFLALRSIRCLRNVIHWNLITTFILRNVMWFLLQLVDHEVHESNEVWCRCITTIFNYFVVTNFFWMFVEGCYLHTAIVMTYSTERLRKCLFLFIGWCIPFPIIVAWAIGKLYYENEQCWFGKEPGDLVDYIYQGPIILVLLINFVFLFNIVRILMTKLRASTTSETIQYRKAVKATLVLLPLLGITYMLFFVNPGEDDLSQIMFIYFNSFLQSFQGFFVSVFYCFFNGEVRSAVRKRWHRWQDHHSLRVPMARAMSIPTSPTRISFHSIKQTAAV
T9 sequence (P24387 whole entry): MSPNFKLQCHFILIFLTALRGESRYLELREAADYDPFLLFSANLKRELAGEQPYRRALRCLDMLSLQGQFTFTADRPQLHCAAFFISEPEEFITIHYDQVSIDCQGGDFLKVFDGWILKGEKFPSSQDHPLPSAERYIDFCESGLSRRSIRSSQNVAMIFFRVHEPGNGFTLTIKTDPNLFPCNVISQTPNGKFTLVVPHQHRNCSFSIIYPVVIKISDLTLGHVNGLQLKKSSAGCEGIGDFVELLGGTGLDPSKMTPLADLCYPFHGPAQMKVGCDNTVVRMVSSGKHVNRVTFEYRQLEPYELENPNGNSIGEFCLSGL

[12] = target: T10, Runt-related transcription factor 1/Core-binding factor subunit beta (Homo sapiens, UniProt Q01196+Q13951); test: inhibitors of RUNX1 Runt–CBFb-SMMHC binding, biochemical, TR-FRET (AID 1438); assay type: protein assay
T10 sequence (Q01196 whole entry, the tested form may be a part): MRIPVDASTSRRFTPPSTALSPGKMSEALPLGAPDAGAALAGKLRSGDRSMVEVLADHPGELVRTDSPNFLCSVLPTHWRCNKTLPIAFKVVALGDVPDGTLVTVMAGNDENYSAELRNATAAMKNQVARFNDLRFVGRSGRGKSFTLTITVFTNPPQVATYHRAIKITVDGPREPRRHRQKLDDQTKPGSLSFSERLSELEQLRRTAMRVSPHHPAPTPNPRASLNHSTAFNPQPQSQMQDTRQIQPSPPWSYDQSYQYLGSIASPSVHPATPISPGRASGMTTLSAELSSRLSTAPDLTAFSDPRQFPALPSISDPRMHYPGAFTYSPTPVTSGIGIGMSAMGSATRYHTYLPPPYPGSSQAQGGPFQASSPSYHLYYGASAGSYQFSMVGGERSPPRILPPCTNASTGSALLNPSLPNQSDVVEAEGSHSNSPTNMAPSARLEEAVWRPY
T10 sequence (Q13951 whole entry, the tested form may be a part): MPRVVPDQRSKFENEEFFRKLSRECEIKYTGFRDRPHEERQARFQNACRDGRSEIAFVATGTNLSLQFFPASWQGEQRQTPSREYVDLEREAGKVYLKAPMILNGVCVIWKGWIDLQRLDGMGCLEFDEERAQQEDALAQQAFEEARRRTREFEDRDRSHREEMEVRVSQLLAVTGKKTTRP

[13] = target: T10, Runt-related transcription factor 1/Core-binding factor subunit beta; test: inhibitors of RUNX1 Runt–CBFb-SMMHC binding, primary screen, biochemical, FRET, Cerulean-Runt, Venus-CBFb-SMMHC, uHTS (AID 1434); assay type: protein assay;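 further: partner is the CBFb-SMMHC leukemia fusion protein rather than wild-type CBFb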
[14] = target: T8, Tyrosine-protein phosphatase non-receptor type 7; test: HePTP (PTPN7) phosphatase inhibitor potency, SAR follow-up, biochemical, set 2 (AID 449736); assay type: functional
[15] = target: T11, G-protein coupled receptor 35 (Homo sapiens, UniProt Q9HC97); test: SAR analysis of Antagonists of the GPR35 Receptor using an Image-Based Assay - Set 6. [Related pubchem assays (depositor defined):AID2013, AID2026]; assay type: functional
T11 sequence (Q9HC97 whole entry): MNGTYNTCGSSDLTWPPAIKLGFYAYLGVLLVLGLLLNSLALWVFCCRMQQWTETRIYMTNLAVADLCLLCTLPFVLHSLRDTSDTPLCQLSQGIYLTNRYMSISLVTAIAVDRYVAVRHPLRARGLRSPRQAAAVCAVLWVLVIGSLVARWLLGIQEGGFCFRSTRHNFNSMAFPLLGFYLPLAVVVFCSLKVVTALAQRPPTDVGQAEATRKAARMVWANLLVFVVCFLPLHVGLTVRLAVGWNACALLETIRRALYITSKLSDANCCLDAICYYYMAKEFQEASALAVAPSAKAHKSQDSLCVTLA

Cannabinoid receptor 2 [16] = target: T12, Cannabinoid receptor 2 (Homo sapiens, UniProt P34972); test: SAR analysis of antagonists of the Cannabinoid Receptor 2 using an Image-Based Assay - Set 3. [Related pubchem assays (depositor defined):AID2013, AID2026]; assay type: functional
T12 sequence (P34972 whole entry): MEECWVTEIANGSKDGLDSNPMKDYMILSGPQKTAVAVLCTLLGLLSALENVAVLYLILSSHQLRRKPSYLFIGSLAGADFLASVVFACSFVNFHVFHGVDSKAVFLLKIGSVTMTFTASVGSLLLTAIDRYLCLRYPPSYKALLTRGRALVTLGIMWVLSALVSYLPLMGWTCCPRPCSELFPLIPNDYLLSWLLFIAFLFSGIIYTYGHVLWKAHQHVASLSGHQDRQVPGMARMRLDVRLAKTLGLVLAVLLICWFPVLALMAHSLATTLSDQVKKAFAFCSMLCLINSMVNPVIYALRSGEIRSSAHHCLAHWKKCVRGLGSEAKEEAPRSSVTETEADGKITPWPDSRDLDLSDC

[17] = target: G-protein coupled receptor 55 (Homo sapiens, UniProt Q9Y2T6); test: SAR Analysis of Selective Antagonists of GPR55 using an Image-Based Assay - Set 4. [Related pubchem assays (depositor defined):AID2013, AID2026]; assay type: functional;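 further: antagonism of response to 5 µM lysophosphatidylinositol agonist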
G-protein coupled receptor 55, sequence (Q9Y2T6 whole entry): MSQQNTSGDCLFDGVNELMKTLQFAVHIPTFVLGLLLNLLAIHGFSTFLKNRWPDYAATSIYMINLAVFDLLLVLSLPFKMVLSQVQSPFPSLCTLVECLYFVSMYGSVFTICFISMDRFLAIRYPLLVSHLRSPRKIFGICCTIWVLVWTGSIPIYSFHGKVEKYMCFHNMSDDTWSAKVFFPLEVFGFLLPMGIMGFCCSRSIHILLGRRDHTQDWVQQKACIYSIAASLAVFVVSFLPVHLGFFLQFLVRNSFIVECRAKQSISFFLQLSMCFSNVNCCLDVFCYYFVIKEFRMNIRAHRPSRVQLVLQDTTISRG

Cannabinoid receptor 2 [18] = target: T12, Cannabinoid receptor 2; test: SAR analysis of agonists of the Cannabinoid Receptor 2 using an Image-Based Assay - Set 3. [Related pubchem assays (depositor defined):AID2013, AID2026]; assay type: functional
[19] = target: T11, G-protein coupled receptor 35; test: SAR analysis of Agonists of the GPR35 Receptor using an Image-Based Assay - Set 4. [Related pubchem assays (depositor defined):AID2013, AID2026]; assay type: functional
Cannabinoid receptor 1 [20] = target: T13, Cannabinoid receptor 1 (Homo sapiens, UniProt P21554); test: SAR analysis of agonists of the Cannabinoid Receptor 1 using an Image-Based Assay - Set 4. [Related pubchem assays (depositor defined):AID2013, AID2026]; assay type: functional
T13 sequence (P21554 whole entry): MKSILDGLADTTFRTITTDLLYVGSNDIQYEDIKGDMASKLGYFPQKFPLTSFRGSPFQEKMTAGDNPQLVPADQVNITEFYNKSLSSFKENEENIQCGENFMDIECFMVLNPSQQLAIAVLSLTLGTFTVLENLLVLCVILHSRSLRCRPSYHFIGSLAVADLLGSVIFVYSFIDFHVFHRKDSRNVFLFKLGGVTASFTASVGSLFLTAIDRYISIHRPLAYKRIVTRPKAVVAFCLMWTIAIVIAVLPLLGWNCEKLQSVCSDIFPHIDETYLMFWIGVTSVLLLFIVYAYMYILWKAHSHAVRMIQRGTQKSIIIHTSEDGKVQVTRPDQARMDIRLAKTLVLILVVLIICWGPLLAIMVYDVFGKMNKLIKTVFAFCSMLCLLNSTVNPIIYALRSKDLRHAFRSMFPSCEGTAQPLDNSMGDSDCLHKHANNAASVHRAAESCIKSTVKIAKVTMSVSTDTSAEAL

Cannabinoid receptor 1 [21] = target: T13, Cannabinoid receptor 1; test: SAR analysis of antagonists of the Cannabinoid Receptor 1 using an Image-Based Assay - Set 4. [Related pubchem assays (depositor defined):AID2013, AID2026]; assay type: functional

With Cc1ccc(NC(=O)CN2C(=O)S/C(=C\c3cccn3-c3cccc(C(=O)O)c3)C2=O)cc1C the IC50 [1] was 3.28 µM (active), the IC50 [2] was 4.36 µM (active) and the EC50 [3] was > 300 µM (not active). For the same compound, the EC50 [4] was > 300 µM (not active), the IC50 [5] was 17.2 µM (active) and the IC50 [6] was 6.14 µM (active).
In the case of COc1ccc(-c2cc(C(=O)N3CCN(c4ccccc4)CC3)c3ccccc3n2)cc1, the AC50 (CAAX prenyl protease 2) is reported as 4.71 µM (active) and the AC50 [7] is reported as 57.4 µM (active).
With CCc1nc2cc([N+](=O)[O-])c([N+](=O)[O-])cc2[nH]1 the IC50 [8] was > 79.4 µM (inactive), the IC50 [9] was > 79.4 µM (inactive) and the IC50 [10] was > 79.4 µM (inactive).
With O=C(Nc1nnc(-c2ccccc2)o1)c1nc2ccccc2s1 the IC50 (SUMO-activating enzyme) was 16.3 µM (active) and the EC50 [11] was 7.07 µM (active).
In the case of C=CCOc1c(Br)cc(C2C3=C(CCCC3=O)N(C)C3=C2C(=O)CCC3)cc1OCC, the IC50 [12] is reported as 41.2 µM (active) and the IC50 [13] is reported as 0.865 µM (active).
For Cc1cccc(NC(=S)Nc2ccc(S(N)(=O)=O)cc2)c1, the IC50 [14] was > 100 µM (inactive).
In the case of Cc1nc(N2CCN(C(=O)C3CC3)CC2)c2c3c(sc2n1)CC(C)CC3 (stereo not drawn), the IC50 [15] is reported as > 32 µM (inactive), the IC50 (Cannabinoid receptor 2 [16]) is reported as > 32 µM (inactive) and the IC50 [17] is reported as 10.6 µM (inactive). The EC50 (Cannabinoid receptor 2 [18]) was > 32 µM (inactive), the EC50 [19] was > 32 µM (inactive) and the EC50 (Cannabinoid receptor 1 [20]) was > 32 µM (inactive). The IC50 (Cannabinoid receptor 1 [21]) was 17.9 µM (inactive).
